# Laboratory results from US9156856B2, “Apoptosis-inducing agents for the treatment of cancer and immune and autoimmune diseases” (AbbVie Inc., priority 2009, dated 2015).
# Target: Bcl-2 (Homo sapiens (Human), UniProt P10415)
# Assay: Time Resolved-Fluorescence Resonance Energy Transfer (TR-FRET) Bcl-2 binding assay with F-Bak peptide probe
# Settings: GST-Bcl-2 1 nM, F-Bak peptide probe 100 nM, Tb-anti-GST antibody 1 nM; Ki by Wang's equation
# Procedure: Determination of the utility of compounds having Formula (I) as binders to and inhibitors of anti-apoptotic Bcl-2 proteins was performed using the Time Resolved-Fluorescence Resonance Energy Transfer (TR-FRET) Assay. Tb-anti-GST antibody was purchased from Invitrogen (Catalog No. PV4216).
# Representative compounds were serially diluted in dimethyl sulfoxide (DMSO) starting at 50 μM (2× starting concentration; 10% DMSO) and 10 μL were transferred into a 384-well plate. The samples are then mixed on a shaker for 1 minute and incubated for an additional 3 hours at room temperature. For each assay, the probe/antibody and protein/probe/antibody were included on each assay plate as negative and positive controls, respectively. Fluorescence was measured on the ENVISION plate reader (Perkin Elmer) using a 340/35 nm excitation filter and 520/525 (F-Bak peptide) and 495/510 nm (Tb-labeled […] antibody) emission filters Inhibition constants (Ki) are shown in TABLE 2 below and were determined using Wang's equation (Wang Z.-X. An Exact Mathematical Expression For Describing Competitive Binding Of Two Different Ligands To A Protein Molecule. FEBS Lett. 1995, 360:111-4).
# The inhibition constant (Ki) is the dissociation constant of an enzyme-inhibitor complex or a protein/small molecule complex, wherein the small molecule is inhibiting binding of one protein to another protein. So a large K, value indicates a low binding affinity and a small Ki value indicates a high binding affinity.
# The compounds are therefore expected to have utility in treatment of diseases during which anti-apoptotic Bcl-2 protein is expressed.
# Chain of Bcl-2 (P10415 whole entry): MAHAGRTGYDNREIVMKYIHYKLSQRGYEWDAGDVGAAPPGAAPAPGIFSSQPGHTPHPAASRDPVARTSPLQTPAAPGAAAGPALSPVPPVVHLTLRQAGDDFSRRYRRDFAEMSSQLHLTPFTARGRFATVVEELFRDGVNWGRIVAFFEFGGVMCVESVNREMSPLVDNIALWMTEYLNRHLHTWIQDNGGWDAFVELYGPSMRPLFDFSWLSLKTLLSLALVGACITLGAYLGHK
row,Compound,Ki
1,"CC(=O)/N=c1\sc(S(=O)(=O)NC(=O)c2ccc(N3CCN(Cc4ccccc4-c4ccc(Cl)cc4)CC3)cc2)nn1C [Example 10, N-{[(5Z)-5-(acetylimino)-4-methyl-4,5-dihydro-1,3,4-thiadiazol-2-yl]sulfonyl}-4-{4-[(4′-chloro-1,1′-biphenyl-2-yl)methyl]piperazin-1-yl}benzamide]",743 nM
2,"CC(C)N(C)CC[C@H](CSc1ccccc1)Nc1sc(S(=O)(=O)NC(=O)c2ccc(N3CCN(Cc4ccccc4-c4ccc(Cl)cc4)CC3)cc2)cc1[N+](=O)[O-] [Example 7, 4-{4-[(4′-chloro-1,1′-biphenyl-2-yl)methyl]piperazin-1-yl}-N-{[5-({(1R)-3-[isopropyl(methyl)amino]-1-[(phenylthio)methyl]propyl}amino)-4-nitrothien-2-yl]sulfonyl}benzamide]",0.084 nM
3,"O=C(NS(=O)(=O)c1cccs1)c1ccc(N2CCN(Cc3ccccc3-c3ccc(Cl)cc3)CC2)cc1 [Example 19, 4-{4-[(4′-chloro-1,1′-biphenyl-2-yl)methyl]piperazin-1-yl}-N-(thien-2-ylsulfonyl)benz amide]",234 nM
4,"CC(C)N(C)CC[C@H](CSc1ccccc1)Nc1sc(S(=O)(=O)NC(=O)c2ccc(N3CCN(CC4=C(c5ccc(Cl)cc5)CCC(C)(C)C4)CC3)cc2)cc1[N+](=O)[O-] [Example 9, 4-(4-{[2-(4-chlorophenyl)-5,5-dimethylcyclohex-1-en-1-yl]methyl}piperazin-1-yl)-N-{[5-({(1R)-3-[isopropyl(methyl)amino]-1-[(phenylthio)methyl]propyl}amino)-4-nitrothien-2-yl]sulfonyl}benzamide]",0.307 nM
5,"Cc1nc(C)c(S(=O)(=O)NC(=O)c2ccc(N3CCN(Cc4ccccc4-c4ccc(Cl)cc4)CC3)cc2)s1 [Example 15, 4-{4-[(4′-chloro-1,1′-biphenyl-2-yl)methyl]piperazin-1-yl}-N-[(2,4-dimethyl-1,3-thiazol-5-yl)sulfonyl]benzamide]",282 nM
6,"O=C(NCc1ccc(S(=O)(=O)NC(=O)c2ccc(N3CCN(Cc4ccccc4-c4ccc(Cl)cc4)CC3)cc2)s1)c1ccccc1 [Example 12, N-({5-[(benzoylamino)methyl]thien-2-yl}sulfonyl)-4-{4-[(4′-chloro-1,1′-biphenyl-2-yl)methyl]piperazin-1-yl}benzamide]",393 nM
7,"Cc1cc(-c2oncc2S(=O)(=O)NC(=O)c2ccc(N3CCN(Cc4ccccc4-c4ccc(Cl)cc4)CC3)cc2)n(C)n1 [Example 23, 4-{4-[(4′-chloro-1,1′-biphenyl-2-yl)methyl]piperazin-1-yl}-N-{[5-(1,3-dimethyl-1H-pyrazol-5-yl)isoxazol-4-yl]sulfonyl}benzamide]",447 nM
8,"CCC(CC)NC(=O)c1nnc(S(=O)(=O)NC(=O)c2ccc(N3CCN(Cc4ccccc4-c4ccc(Cl)cc4)CC3)cc2)s1 [Example 28, 5-{[(4-{4-[(4′-chloro-1,1′-biphenyl-2-yl)methyl]piperazin-1-yl}benzoyl)amino]sulfonyl}-N-(1-ethylpropyl)-1,3,4-thiadiazole-2-carboxamide]",417 nM
9,"Cc1nc(OCC2(F)CCOCC2)sc1S(=O)(=O)NC(=O)c1ccc(N2CCN(CC3=C(c4ccc(Cl)cc4)CC(C)(C)CC3)CC2)cc1Oc1cccc2[nH]ncc12 [Example 48, 2-(1H-indazol-4-yloxy)-4-(4-((2-(4-chlorophenyl)-4,4-dimethylcyclohex-1-enyl)methyl)piperazin-1-yl)-N-(2-((4-fluorotetrahydro-2H-pyran-4-yl)methoxy)-4-methylthiazol-5-ylsulfonyl)benzamide]",1.64 nM
10,"CN(C)CCCNc1sc(S(=O)(=O)NC(=O)c2ccc(N3CCN(CC4=C(c5ccc(Cl)cc5)CC(C)(C)CC4)CC3)cc2Oc2ccc3[nH]ccc3c2)cc1[N+](=O)[O-] [Example 34, 4-(4-{[2-(4-chlorophenyl)-4,4-dimethylcyclohex-1-en-1-yl]methyl}piperazin-1-yl)-N-[(5-{[3-(dimethylamino)propyl]amino}-4-nitrothien-2-yl)sulfonyl]-2-(1H-indol-5-yloxy)benzamide]",1.79 nM
11,"O=C(NS(=O)(=O)c1c(Cl)nc2sccn12)c1ccc(N2CCN(Cc3ccccc3-c3ccc(Cl)cc3)CC2)cc1 [Example 13, 4-{4-[(4′-chloro-1,1′-biphenyl-2-yl)methyl]piperazin-1-yl}-N-[(6-chloroimidazo[2,1-b][1,3]thiazol-5-yl)sulfonyl]benzamide]",388 nM
12,"COC(=O)c1ccc(S(=O)(=O)NC(=O)c2ccc(N3CCN(Cc4ccccc4-c4ccc(Cl)cc4)CC3)cc2)n1C [Example 22, methyl 5-{[(4-{4-[(4′-chloro-1,1′-biphenyl-2-yl)methyl]piperazin-1-yl}benzoyl)amino]sulfonyl}-1-methyl-1H-pyrrole-2-carboxylate]",188 nM
13,"CC(C)N(C)CC[C@H](CSc1ccccc1)Nc1sc(S(=O)(=O)NC(=O)c2ccc(N3CCN(CC4=C(c5ccc(Cl)cc5)CCCC4)CC3)cc2)cc1[N+](=O)[O-] [Example 8, 4-(4-{[2-(4-chlorophenyl)cyclohex-1-en-1-yl]methyl}piperazin-1-yl)-N-{[5-({(1R)-3-[isopropyl(methyl)amino]-1-[(phenylthio)methyl]propyl}amino)-4-nitrothien-2-yl]sulfonyl}benzamide]",0.064 nM
14,"Cc1cc(C)n2nc(S(=O)(=O)NC(=O)c3ccc(N4CCN(CC5=C(c6ccc(Cl)cc6)CC(C)(C)CC5)CC4)cc3Oc3cc4cc[nH]c4c(F)c3F)nc2n1 [Example 42, 4-(4-{[2-(4-chlorophenyl)-4,4-dimethylcyclohex-1-en-1-yl]methyl}piperazin-1-yl)-2-[(6,7-difluoro-1H-indol-5-yl)oxy]-N-[(5,7-dimethyl[1,2,4]triazolo[1,5-a]pyrimidin-2-yl)sulfonyl]benzamide]",0.039 nM
15,"Cc1nc(OCC2(F)CCOCC2)sc1S(=O)(=O)NC(=O)c1ccc(N2CCN(CC3=C(c4ccc(Cl)cc4)CC(C)(C)CC3)CC2)cc1Oc1cccc2[nH]cnc12 [Example 46, 2-(1H-benzimidazol-4-yloxy)-4-(4-{[2-(4-chlorophenyl)-4,4-dimethylcyclohex-1-en-1-yl]methyl}piperazin-1-yl)-N-({2-[(4-fluorotetrahydro-2H-pyran-4-yl)methoxy]-4-methyl-1,3-thiazol-5-yl}sulfonyl)benzamide]",1.75 nM
16,"CC1(C)CCC(CN2CCN(c3ccc(C(=O)NS(=O)(=O)c4cc([N+](=O)[O-])c(NCCCN5CCCC5)s4)c(Oc4ccc5[nH]ccc5c4)c3)CC2)=C(c2ccc(Cl)cc2)C1 [Example 33, 4-(4-{[2-(4-chlorophenyl)-4,4-dimethylcyclohex-1-en-1-yl]methyl}piperazin-1-yl)-2-(1H-indol-5-yloxy)-N-({4-nitro-5-[(3-pyrrolidin-1-ylpropyl)amino]thien-2-yl}sulfonyl)benzamide]",0.649 nM
17,"O=C(NS(=O)(=O)c1nc2ccccc2s1)c1ccc(N2CCN(Cc3ccccc3-c3ccc(Cl)cc3)CC2)cc1 [Example 18, N-(1,3-benzothiazol-2-ylsulfonyl)-4-{4-[(4′-chloro-1,1′-biphenyl-2-yl)methyl]piperazin-1-yl}benzamide]",129 nM
18,"O=C(NS(=O)(=O)c1cc([N+](=O)[O-])c(N2CCCCC2)s1)c1ccc(N2CCN(Cc3ccccc3-c3ccc(Cl)cc3)CC2)cc1 [Example 30, 4-{4-[(4′-chloro-1,1′-biphenyl-2-yl)methyl]piperazin-1-yl}-N-[(4-nitro-5-piperidin-1-ylthien-2-yl)sulfonyl]benzamide]",269 nM
19,"Cc1nc(OC[C@@H]2CN(C(=O)OC(C)(C)C)CCO2)sc1S(=O)(=O)NC(=O)c1ccc(N2CCN(CC3=C(c4ccc(Cl)cc4)CC(C)(C)CC3)CC2)cc1Oc1cccc2[nH]ncc12 [Example 47, (S)-tert-butyl 2-((5-(N-(2-(1H-indazol-4-yloxy)-4-(4-((2-(4-chlorophenyl)-4,4-dimethylcyclohex-1-enyl)methyl)piperazin-1-yl)benzoyl)sulfamoyl)-4-methylthiazol-2-yloxy)methyl)morpholine-4-carboxylate]",20.4 nM
20,"Cc1nc(OC[C@@H]2CN(C(=O)OC(C)(C)C)CCO2)sc1S(=O)(=O)NC(=O)c1ccc(N2CCN(CC3=C(c4ccc(Cl)cc4)CC(C)(C)CC3)CC2)cc1Oc1cnc2[nH]ccc2c1 [Example 43, tert-butyl (2S)-2-{[(5-{[4-(4-{[2-(4-chlorophenyl)-4,4-dimethylcyclohex-1-en-1-yl]methyl}piperazin-1-yl)-2-(1H-pyrrolo[2,3-b]pyridin-5-yloxy)benzoyl]sulfamoyl}-4-methyl-1,3-thiazol-2-yl)oxy]methyl}morpholine-4-carboxylate]",46.5 nM
21,"Cc1c(S(=O)(=O)NC(=O)c2ccc(N3CCN(Cc4ccccc4-c4ccc(Cl)cc4)CC3)cc2Oc2ccccc2)sc2ccc(Cl)cc12 [Example 39, 4-{4-[(4′-chloro-1,1′-biphenyl-2-yl)methyl]piperazin-1-yl}-N-[(5-chloro-3-methyl-1-benzothien-2-yl)sulfonyl]-2-phenoxybenzamide]",20.2 nM
